Several values for one entry are separate records, joined by “and”; a condition that tells them apart may be missing. Equal values may be shown once.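 Compound exposure: 48 hours, 5 concentrations, 96-well plates. GI50: concentration for 50% inhibition of growth. TGI denotes the concentration required for complete inhibition of growth.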 Bounds are passed on as bounds.

This note sets out measurements from PubChem BioAssay (NCI).

Holding throughout (experiment): NCI-60 cell line screen, 48 h
Assay [1] deals with SF-539 CNS.
The subject of assay [2] is UACC-62 melanoma.
For assay [3], the system named is OVCAR-4 ovarian.
The subject of assay [4] is U251 CNS.
For assay [5], the system named is OVCAR-5 ovarian.
Assay [6] relates to RXF 393 renal.
Assay [7] relates to HCT-116 colon.
Assay [8] concerns HCC-2998 colon.
Assay [9] deals with SF-295 CNS.
Assay [10] concerns ACHN renal.

Turning to `NC(=O)NC(=O)c1cccc(C(=O)NC(N)=O)n1`, the TGI in [1], in assay [2], in [3], in assay [4], in [5] and in assay [6] was greater than 100 µM in each case. In addition, the TGI in [7], in [8], in assay [9] and in [10] was greater than 100 µM throughout.

`CN(C)C=Nc1cccc2c1NSN2`: the TGI in assay [1], in [2], in assay [3], in [4], in assay [5] and in assay [6] was greater than 100 µM throughout. Also, the TGI in assay [7], in [8], in assay [9] and in assay [10] was greater than 100 µM throughout.

Regarding `COc1ccc(-c2c(C#N)c(N)n(C3OC(COC(C)=O)C(OC(C)=O)C(OC(C)=O)C3OC(C)=O)c(=S)c2C#N)cc1` (configuration not stated), the TGI in assay [1] was 67.5 µM and > 100 µM; in assay [2], 73.4 µM and 47.3 µM; in [3] it was > 100 µM and 55.6 µM; in assay [4] it was greater than 100 µM; in [5], greater than 100 µM; in [6], 84.6 µM and 72.2 µM. Also, the TGI in assay [7] was greater than 100 µM; in assay [8], > 100 µM and 38.2 µM; in [9], greater than 100 µM; in assay [10], greater than 100 µM. Moreover, the GI50 in assay [5] was > 100 µM and 38.4 µM.

`COC(=O)C1=C(C(=O)OC)C2CCC1CC2=O` (configuration not stated): the TGI in assay [1], in assay [2], in assay [3], in assay [4], in assay [5] and in [6] was greater than 100 µM each time. In addition, the TGI in assay [7], in [8], in [9] and in assay [10] was greater than 100 µM throughout.

For `COc1ccc([C@H]2C=C(c3cc(F)c(Cl)cc3Cl)N=c3s/c(=C\c4ccc(-c5ccc(Cl)cc5Cl)o4)c(=O)n32)cc1`, the TGI in assay [1], in assay [2], in assay [3], in assay [4], in [5] and in assay [6] was greater than 100 µM in each case. The TGI in assay [7] was greater than 100 µM; in [8], 47.8 µM; in assay [9] it was greater than 100 µM; in assay [10], greater than 100 µM.

As for `FC(F)(F)c1ccc(N=NN2CCCC2)cc1`, the TGI in [1], in assay [2], in [3], in [4], in [5] and in [6] was greater than 100 µM in each case. Moreover, the TGI in assay [7], in assay [8], in [9] and in assay [10] was greater than 100 µM each time.

With `CC(=O)Oc1ccc(C2SCc3nc4ccccc4n32)cc1` (configuration not stated), the TGI in assay [1] is greater than 100 µM; in assay [2] it was greater than 100 µM; in assay [3], greater than 100 µM; in assay [4] it was greater than 100 µM; in assay [5], greater than 100 µM; in [6] it was 77.3 µM. Moreover, the TGI in [7] was greater than 100 µM; in [8], 69 µM; in assay [9], greater than 100 µM; in [10], greater than 100 µM.

Turning to `N#C[C@H](c1nc2ccccc2[nH]1)c1nc2ccccc2nc1Cl`, the TGI is greater than 100 µM in assay [1]; greater than 38.8 µM in [2]; greater than 53.9 µM in assay [3]; 58.9 µM in assay [4]; greater than 66.2 µM in assay [5]; greater than 100 µM in [6]. The TGI in assay [7] was 24.2 µM; in [8] it was greater than 60.9 µM; in assay [9], greater than 100 µM; in [10], greater than 46 µM.

In the case of `O=C(O)COc1cccc2ccccc(=O)c12`, the TGI in assay [1], in [2], in [3], in assay [4], in [5] and in assay [6] was greater than 100 µM in each case. Also, the TGI in assay [7], in assay [8], in assay [9] and in assay [10] was greater than 100 µM throughout.

For the molecule `Cc1ccc(S(=O)(=O)N/N=C2/C3CC4CCC2C4C3)cc1` (configuration not stated), the TGI in [1], in [2], in assay [3], in assay [4], in assay [5] and in [6] was greater than 100 µM in each case. Besides, the TGI in [7], in [8], in assay [9] and in assay [10] was greater than 100 µM in each case.

With `O=c1[nH]nc(-c2ccccc2)c2[nH]c3c(c12)CCCc1ccccc1-3`, the TGI stood at 36.1 µM in [1]; 25.1 µM in [2]; 33.6 µM in [3]; 28 µM in assay [4]; 34.8 µM in assay [5]; 36 µM in assay [6]. For the same molecule, the TGI in [7] was 28.5 µM; in [8], 28 µM; in assay [9] it was 57.5 µM; in assay [10], 38.9 µM.

With `COc1ccc(OC)c2c1-c1nnnn1CCC2(C)C`, the TGI in [1], in assay [2], in assay [3], in assay [4], in assay [5] and in assay [6] was greater than 100 µM each time. Moreover, the TGI in assay [7], in assay [8], in [9] and in [10] was greater than 100 µM each time.

On to `[B]C(=O)NC(CC(C)C)C(=O)NC1c2ccsc2C(=O)C1O` (configuration not stated) (tested in a mixture with another compound), for which the TGI in [1], in [2], in [3], in assay [4], in [5] and in assay [6] was greater than 100 µM throughout. The TGI in [7], in assay [8], in assay [9] and in assay [10] was greater than 100 µM each time.

For the molecule `CC1(C)CC(=O)C(/C=N/c2nc(-c3cccc([N+](=O)[O-])c3)cs2)=C(O)C1`, the TGI in [1] was 45.6 µM; in assay [2], 42.2 µM; in assay [3] it was greater than 100 µM; in [4] it was 46.4 µM; in [5], greater than 100 µM; in assay [6] it was 46.9 µM. For the same molecule, the TGI is 28.1 µM in [7], 29.1 µM in [8], greater than 100 µM in assay [9] and 33.8 µM in assay [10].

As to `Cc1nc2ccccc2n1Cc1ccc(NC(=S)NC2CCCCC2)cc1`, the TGI in [1] is greater than 100 µM; in assay [2], greater than 89.7 µM; in [3], greater than 100 µM; in assay [4], greater than 100 µM; in [5], greater than 100 µM; in [6], greater than 100 µM. Besides, the TGI in assay [7] was greater than 100 µM; in assay [8], greater than 100 µM; in assay [9], greater than 88.3 µM; in assay [10] it was 44.4 µM.

In the case of `COc1ccc(OC/C(N=Cc2cccnc2)=N/NC(=O)c2ccncc2)cc1`, the TGI in assay [1], in assay [2], in assay [3], in assay [4], in [5] and in [6] was greater than 100 µM throughout. The TGI in [7], in [8], in [9] and in [10] was greater than 100 µM throughout.

Take `CC(C)(C)OC(=O)/C=C/[C@@H](CCC(=O)/C=C/[C@H](/C=C\CCCC(=O)O)NC1(c2ccccc2)c2ccccc2-c2ccccc21)O[Si](C)(C)C(C)(C)C`: the TGI in assay [1] came out at 36.6 µM; in [2], 29.6 µM; in assay [3] it was 53.9 µM; in assay [4] it was 30.9 µM; in [5], 43.6 µM; in assay [6] it was 24.5 µM. For the same molecule, the TGI is 30.2 µM in [7], 32.5 µM in [8], 33.5 µM in assay [9] and 36.3 µM in [10].

On to `CCOC(=O)C(/C=N/C(N)=S)=C(/O)c1ccccc1`, for which the TGI in [1], in assay [2], in assay [3], in assay [4], in [5] and in assay [6] was greater than 100 µM in each case. Moreover, the TGI in assay [7], in assay [8], in assay [9] and in assay [10] was greater than 100 µM each time.

`COC(=O)/C=C/c1cc(OC)c2c(c1)C(C(=O)OC)C(c1ccc(O)c(OC)c1)O2` (configuration not stated): the TGI in [1] is 9.24 µM and 8.25 µM and 10.4 µM; in assay [2] it was > 56.1 µM and 36.4 µM and 32.9 µM; in assay [3] it was greater than 100 µM; in [4], > 45 µM and > 54.2 µM and 48.3 µM; in [5] it was greater than 100 µM; in assay [6] it was 9.76 µM and 7.8 µM and > 43.6 µM. For the same molecule, the TGI in assay [7] was > 100 µM and > 46.7 µM and 19.7 µM; in assay [8], 48.4 µM and 25.6 µM and 21 µM; in assay [9], 11.8 µM and 12.6 µM and 10 µM; in assay [10], greater than 100 µM. Further, the GI50 is 2.42 µM and 3.37 µM and 1.57 µM in assay [2]; 7.9 µM and 7.77 µM and 18 µM in [3]; 48.8 µM and 55.2 µM and 22.3 µM in assay [5]; 4.22 µM and 3.67 µM and 1.1 µM in assay [7]; 24.5 µM and 10.6 µM and 5.69 µM in assay [8]; > 26.2 µM and 15.9 µM and 7.59 µM in [10].

As for `CCN(CC)CCCNc1c2cc(OC)ccc2nc2cccc([N+](=O)[O-])c12`, the TGI came out at 0.304 µM in assay [1]; 0.359 µM in [2]; 0.0779 µM in assay [3]; 0.432 µM in assay [4]; 0.432 µM in [5]; 0.23 µM in [6]. Further, the TGI in assay [7] turned out to be 0.175 µM; in assay [8], 0.192 µM; in assay [9] it was 0.796 µM; in [10], 0.306 µM.
